# Assay: method code SF-ESR, from DOI: 10.3109/10715769009149900, PMID: 2175281
Compound,logD (pH 12.0),logD (pH 7.0),other results
CC1(C)C=C(CN2CCCCC2)CC(C)(C)N1O,1.58,–,–
CC1(C)C=CC(C)(C)N1O,–,1.31,–
CC1(C)C=C(C(=O)O)C(C)(C)N1O,–,–,logD (pH 2.5): 1.11
CC1(C)CC(O)CC(C)(C)N1O,–,0.63,–
CC1(C)[C@H](C(=O)O)[C@H](C(=O)O)C(C)(C)N1O,–,–,logD (pH 2.5): 0.46
CC1(C)CC(N)C(C)(C)N1O (stereo unspecified),1.03,–,–
CC1(C)CC(C(N)=O)C(C)(C)N1O (stereo unspecified),–,-0.21,–
CC1(C)CC(CO)C(C)(C)N1O (stereo unspecified),–,0.34,–
CC1(C)C=C(CN2CCCCC2)C(C)(C)N1O,1.88,–,–
CC1(C)CC(=O)CC(C)(C)N1O,–,0.12,–
CC1(C)CC(CN)C(C)(C)N1O (stereo unspecified),0.36,–,–
CC1(C)C=C(CN2CCOCC2)CC(C)(C)N1O,1.14,–,–
CC1(C)C=C(C(N)=O)C(C)(C)N1O,–,0.25,–

# Second part, led by results:
logD (pH 12.0),logD (pH 7.0),Compound,other results
–,1.78,CC1(C)C=CCC(C)(C)N1O,–
0.7,–,CN(C)CC1=CC(C)(C)N(O)C1(C)C,–
0.91,–,CN(C)CCN(C)CC1=CC(C)(C)N(O)C1(C)C,–

# Source: the SangsterLogP compilation
